Assay results taken from patent US6420381B1, “Naphthyridine derivatives” (Sumitomo Pharmaceuticals Company, Limited, priority 1998, dated 2002).
Structures can show the parent of a compound that is named as a salt.

How the values were obtained:
ACAT [1] = assay: Assay of ACAT inhibitory activity in a specimen prepared from rabbit liver; type: biochemical, New Zealand white rabbit; conditions: enzyme specimen from liver of cholesterol-fed rabbit, [1-14C]oleoyl-CoA
Method: 1. Assay of ACAT inhibitory activity in a specimen prepared from rabbit liver:
An enzyme specimen ACAT was prepared according to the method disclosed in the literature: J. Lipid. Research, 30, 681-690, 1989, from the liver of a New Zealand white rabbit, which had been fed with 1% cholesterol feed for one month. The ACAT activity was determined according to the method disclosed in the literature: J. Lipid Research, 24, 1127-1134, 1983, i.e., using radioactive [1-^14C]oleoyl-CoA and endogenous cholesterol contained in the liver microsome, and calculated from the radioactivity of the labeled cholesterol oleate.

ACAT [2] = biological target: T1, ACAT (Rattus norvegicus, UniProt O70536); assay: Assay of ACAT inhibitory activity in a macrophage derived from rat peritoneal; type: cell-based; conditions: [9,10-3H]oleic acid
T1 construct: The rat peritoneal-derived macrophage was prepared; endogenous in cells; host or cells: rat peritoneal macrophages (primary)
T1 sequence (O70536 1-545): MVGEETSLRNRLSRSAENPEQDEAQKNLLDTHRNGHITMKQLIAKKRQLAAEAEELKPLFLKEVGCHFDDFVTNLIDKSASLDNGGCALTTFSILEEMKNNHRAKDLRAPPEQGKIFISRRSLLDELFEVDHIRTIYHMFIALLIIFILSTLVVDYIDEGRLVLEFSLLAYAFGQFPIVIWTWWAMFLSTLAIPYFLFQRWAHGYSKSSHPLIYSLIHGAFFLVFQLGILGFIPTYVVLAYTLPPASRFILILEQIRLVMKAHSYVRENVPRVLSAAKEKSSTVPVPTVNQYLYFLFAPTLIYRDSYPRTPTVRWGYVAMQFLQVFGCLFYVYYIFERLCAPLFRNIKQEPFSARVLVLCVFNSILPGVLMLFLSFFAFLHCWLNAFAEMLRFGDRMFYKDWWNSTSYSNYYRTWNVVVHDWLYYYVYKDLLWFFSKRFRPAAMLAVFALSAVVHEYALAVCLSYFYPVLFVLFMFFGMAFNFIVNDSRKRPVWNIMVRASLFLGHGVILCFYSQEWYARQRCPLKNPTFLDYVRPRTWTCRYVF
Method: 2. Assay of ACAT inhibitory activity in a macrophage derived from rat peritoneal:
The rat peritoneal-derived macrophage was prepared according to the method disclosed in the literature: Biochimica et Biophysica Acta, 1126, 73-80, 1992. The ACAT activity was determined by a modified method of the method disclosed in the above literature: Biochimica et Biophysica Acta, 1126, 73-80, 1992, i.e., using radioactive [9,10-^3H]oleic acid and exogenous cholesterol contained in the liposome which was re-constituted according to the method disclosed in the literature: Biochimica et Biophysica Acta, 1213, 127-134, 1994, and calculated from the radioactivity of the labeled cholesterolyl oleate.

| Molecule | melting point | ACAT inhibitory rate (%) 10^−6 M (ACAT [1]) | inhibition at 1 µM (ACAT [2]; 10^−6 M, read-out: ACAT inhibitory rate (%) 10^−6 M) | ACAT inhibitory rate (%) 10^−6 M (ACAT [2]) |
| --- | --- | --- | --- | --- |
| CCCCn1c(=O)c(NC(=O)Nc2cc(CNC)ccc2C(C)(C)C)c(-c2cccc(OC)c2)c2cccnc21 (as salt: hydrochloride) [Example 31] | 163 to 165 °C | – | – | – |
| CCCCn1c(=O)c(NC(=O)Nc2cc(CN(C)C)ccc2C(C)(C)C)c(-c2cccc(OC)c2)c2cccnc21 (as salt: hydrochloride) [Example 30] | 174 to 175 °C | – | – | – |
| CCCCn1c(=O)c(NC(=O)Nc2cc(CN3CCOCC3)ccc2C(C)(C)C)c(-c2cccc(OC)c2)c2cccnc21 [Example 1, N-[1-butyl-4-(3-methoxyphenyl)-1,2-dihydro-2-oxo-1,8-naphthyridin-3yl]-N′-[2-tert-butyl-5-(morpholinomethyl)phenyl]urea] | – | 98% | 97% | – |
| CCCCn1c(=O)c(NC(=O)Nc2cc(CNCC)ccc2C(C)(C)C)c(-c2cccc(OC)c2)c2cccnc21 (as salt: hydrochloride) [Example 32] | 158 to 161 °C | – | – | – |
| N-[1-butyl-4-(3-methoxyphenyl)-1,2-dihydro-2-oxo-1,8-naphthyridin-3-yl]-N′-[2-tert-butyl-5-(1-pyrazolylmethyl)phenyl]urea [Example 19] | – | 99% | – | 73% |
